Entries after “also recorded” stand apart in the source; their conditions may differ.
Key:
Assay type in all cases: cell-based, human
[1] = tested on: caspase-3, -6 and -8; experiment: Caspase cleavage activity of cell extracts, statements covering DEVD, VEID and IETD peptides together; details: for protease activity on DEVD, VEID and IETD peptides, single treatment: FIG. 7: verteporfin 5 ng/ml with light, FasL 7.5 ng/ml or TRAIL 20 ng/ml alone
Procedure: (§1) The human Jurkat T cell line containing a neomycin resistance gene was obtained from Dr. Charles Rudin (University of Chicago). Cells were maintained in RPMI 1640 medium containing 10% heat-inactivated fetal calf serum (FCS) with penicillin (100 U/mL), streptomycin (100 μg/mL), 20 mM HEPES, 2 mM L-glutamine and G418 (1 μg/ml) purchased from Gibco BRL (Burlington, Ontario) in a CO2 incubator at 37° C. To elicit apoptosis with PDT, Jurkat cells were incubated with different amounts of liposomally formulated benzoporphyrin derivative monoacid ring A (BPD-MA, verteporfin, QLT PhotoTherapeutics, Inc., Vancouver, Canada) for one hour at 37° C. under light-protected conditions. The culture medium used for experiments was identical to that used for the passage of the cells except that FCS was used at a concentration of 5%. Experiments were conducted either in 6-well culture plates at 5×10^6 cells in a volume of 4 ml per well or in 96-well microtiter plates at 1×10^5 cells per well at 0.2 ml per well. Cells were irradiated with light of a wavelength of 690 nm delivered at 65-73 mW/sec from light emitting diodes (LED) to achieve a total light dose of 5 J/cm^2. Cells were returned to the incubator until required for analysis.
FasL and TRAIL as used were recombinant preparations. FasL was obtained from Upstate Biotechnology (Lake Placid NY) and corresponded to amino acids 103-281 of the soluble domain of human FasL. TRAIL was obtained from BIOMOL Research Laboratories (Plymouth Meeting, Pa.) and corresponded to residues 114-281 of the soluble domain of human TRAIL. FasL and TRAIL were usually added immediately following the treatment of cells with PDT, although in one series of experiments these factors were added at 1, 2 or 3 hours post-irradiation.
Whole cell lysates were prepared by washing 1×10^7 cells per sample twice with ice-cold PBS. Cells were disrupted with 1 mL of lysis buffer [1% Nonidet P-40 detergent (NP-40), 20 mM Tris-HCl, pH 8.0, 137 mM NaCl, 10% glycerol, 1 mM phenylmethylsulfonyl fluoride (PMSF) aprotinln (0.15 U/mL) and 1 mM sodium orthovanadate] for 20 minutes on ice. Lysates were centrifuged for 10 minutes at 15,800×g at 4° C.
These sequences are denoted by letter codes for each amino acid. To evaluate relative DEVDase (caspases 3 and 7), VEIDase (caspase 6) and IETDase (caspase 8) cleavage activity, Jurkat cell lysates were incubated with caspase-specific fluorescent substrates as described by Granville et al. (“Photodynamic therapy induces caspase-3 activation in HL-60 cells”, Cell Death Differ., 4, 623-629 (1997)). Briefly, lysates were incubated with reaction buffer (20 mM Tris pH 7.5, 137 mM NaCl, 1% NP-40, 10% glycerol) containing 100 μM of the caspase substrates Ac-DEVD-AMC (Calbiochem, Cambridge, Mass.), Ac-VEID-AMC (Calbiochem, Cambridge, Mass.), Ac-lETD-AMC (BIOMOL, Plymouth Meeting Pa.), and Ac-LEHD-AMC (Calbiochem, Cambridge, Mass.). The letter codes for the amino acid residues present within the inhibitor peptides are as following: D=aspartic acid; E=glutamic acid; H=histidine; I=isoleucine; T=threonine; V=valine. The reaction mixture was incubated at 37° C. for 1 (DEVD.AMC) or 24 (VEID.AMC and IETH.AMC) h and fluorescence was measured using an excitation at 380 nm and an emission wavelength of 460 nm with a CytoFluor™ 2350 fluorescent measuring system (Perseptive Biosystems, Burlington, Ont).

[2] = tested on: IETDase (caspase 8); experiment: Protease assay of cell extracts with Ac-IETD-AMC; details: TRAIL 20 ng/ml, 3 hours, Jurkat whole cell extracts
Procedure: as §1, with “Cells were irradiated with light of a wavelength of 690 nm delivered at 65-73 mW/sec from light emitting diodes (LED) to achieve a total light dose of 5 J/cm^2. Cells were returned to the incubator until required for analysis.” left out
(§2) These sequences are denoted by letter codes for each amino acid. […] The reaction mixture was incubated at 37° C. for 1 (DEVD.AMC) or 24 (VEID.AMC and IETH.AMC) h and fluorescence was measured using an excitation at 380 nm and an emission wavelength of 460 nm with a CytoFluor™ 2350 fluorescent measuring system (Perseptive Biosystems, Burlington, Ont).

[3] = tested on: DEVDase (caspases 3 and 7); experiment: Protease assay of cell extracts with Ac-DEVD-AMC; details: TRAIL 20 ng/ml, 3 hours, Jurkat whole cell extracts
Procedure: as §1, with “Cells were irradiated with light of a wavelength of 690 nm delivered at 65-73 mW/sec from light emitting diodes (LED) to achieve a total light dose of 5 J/cm^2. Cells were returned to the incubator until required for analysis.” left out
as §2

[4] = tested on: VEIDase (caspase 6); experiment: Protease assay of cell extracts with Ac-VEID-AMC; details: TRAIL 20 ng/ml, 3 hours, Jurkat whole cell extracts
Procedure: as §1, with “Cells were irradiated with light of a wavelength of 690 nm delivered at 65-73 mW/sec from light emitting diodes (LED) to achieve a total light dose of 5 J/cm^2. Cells were returned to the incubator until required for analysis.” left out
as §2

Row | Substance | caspase activity compared with the treatments given independently ([1]; FIG. 7: factor combined with PDT (verteporfin 5 ng/ml, 5 J/cm^2), 3 hours) | protease activity on DEVD, VEID and IETD peptides, single treatment ([1]; 3 hours) | caspase activity compared with PDT or TRAIL applied independently ([1]; TRAIL 20 ng/ml plus PDT, each verteporfin concentration, 3 hours) | protease activity compared with FasL or TRAIL alone ([1]; factor plus verteporfin in the absence of light irradiation) | increase in IETDase-like activity versus control cells [2] | increase in DEVDase-like activity versus control cells [3] | increase in VEIDase-like activity versus control cells [4] | verteporfin concentration at which the effect of PDT on caspase activity was greatest ([1]; light 5 J/cm^2, extracts 3 hours post-PDT) [ng/mL] | effect of PDT alone on DEVDase-, VEIDase- and IETDase-like activity ([1]; verteporfin and light 5 J/cm^2, no FasL or TRAIL, 3 hours post-PDT)
1 | TRAIL: recombinant, residues 114-281 of the soluble domain of human TRAIL (BIOMOL) | higher caspase activity | modestly increased | higher | no different | two-fold | approximately four-fold | two-fold |  | 
2 | benzoporphyrin derivative monoacid ring A [verteporfin, reference compound] |  | modestly increased |  |  |  |  |  | 5 | promoted DEVDase-like, VEIDase-like and IETDase-like activity; also recorded: increased levels of DEVDase-like, VEIDase-like and IETDase-like activity

From patent publication US20030008857A1, “Photodynamic therapy (PDT) in combination with factors that bind cell surface apoptosis-inducing receptors” (priority 1999, published 2003)
